Reference: the OPERA property sets (Mansouri et al. 2018)
In brackets after ≈: the same amount, converted by molar mass.

Conditions: not given

solubility [µM]	SMILES
871000 (≈ 250000 µg/mL)	O=S(=O)(O)OCCOc1ccc(Cl)cc1Cl

Same assay, conditions: 20 °C

solubility [µM]	SMILES
107 (≈ 30 µg/mL)	CC(=O)OC[C@H]([C@H](OC(C)=O)c1ccccc1)[N+](=O)[O-]
0.0926 (≈ 0.03 µg/mL)	Clc1ccc(Sc2cc(Cl)c(Cl)cc2Cl)cc1
1.19 (≈ 0.3 µg/mL)	CON(C(=O)c1cc(C)oc1C)C1CCCCC1
11400 (≈ 3000 µg/mL)	CCS(=O)(=O)c1nnc(N(C)C(=O)NC)s1
219 (≈ 50 µg/mL)	Cc1cc(Cl)ccc1NC(=S)N(C)C

Same assay, conditions: 25 °C

solubility [µM]	SMILES
8.76 (≈ 3 µg/mL)	CCN(C(=O)Oc1cccc(NC(=O)OC(C)C)c1)c1ccccc1
2050 (≈ 574 µg/mL)	O=C1OCCC1N(C(=O)C1CC1)c1cccc(Cl)c1 (stereo not given)
2.59 (≈ 0.937 µg/mL)	CCOC(=O)C(C)Oc1ccc(Oc2nc3ccc(Cl)cc3o2)cc1 (stereo not given)
2740 (≈ 750 µg/mL)	CCOC(=O)CNc1nc(Cl)nc(NC(C)C)n1
